Paper PMC6539231, “4,5-Diaryl 3(2H)Furanones: Anti-Inflammatory Activity and Influence on Cancer Growth” (Molecules, 2019)
Entries after “also recorded” stand apart in the source; their conditions may differ.

Experiments:
HSC-3 cells = experiment: Growth inhibition assay, HSC-3 cells; details: for HSC-3 % Cell Growth: Compound concentration: 10μΜ; for IC50: Homo sapiens, HSC-3, 48 h, read-out: HSC-3 IC50 Values
Protocol: (§2) The cells were grown in the presence of each of the selected compounds as well as of the two well-known anti-neoplastic drugs gefitinib and 5-fluorouracil.
(§3) Each cell culture was treated appropriately, ensuring that DMSO concentration was kept below ≤ 0.2% (v/v) after every dilution. Cells were seeded in 24-well plates, at an initial density of 5 × 10^4 cells/mL. […] Cells were allowed to grow for additional 48 h before being harvested by trypsinization and subsequently counted (cell density; number of cells/mL) using a hemocytometer (Neubauer counting chamber) and optical microscopy. Cell growth was expressed as a percentage relative to that for the untreated control culture (only cells and medium, CTL).

[1] = tested on: carrageenan mice paw oedema; experiment: Carrageenin-induced mouse paw edema; type: in vivo, mice (AKR); details: Mus musculus, ip; Dose 0.1 µmol/g; intraperitoneally, simultaneously with carrageenin; read-out: CPE, %
Protocol: From the data of Table 7 it is obvious that anti-inflammatory activity of alkylsulfones and sulfoxides of furan-3(2H)-ones, including annelated derivatives are very similar.
The anti-inflammatory activity of compounds was performed using the carrageenan mice paw oedema assay. Animal of both sex (AKR), with exception of pregnant females were housed under standard conditions, receiving only water during the experimental period. […] The detailed description of the whole experiment reported previously. All the biological experiments were carried out in full compliance with the European Convention for the Protection of Vertebrate Animals used for Experimental or Other Scientific Purposes (ETS NO 123, Strasbourg, 03/18/1986): Strasbourg (France). European Treaty Series, № 123, March 18, 1986. 11 P. The project identification code and date of approval is 350880/3468 of 15-12-2014, University of Thessaloniki.

MCF-7 cells [2] = experiment: Combination (synergy) growth assay in MCF-7 cells, Combination Index; type: cell-based, human; details: MCF-7, 48 h; for Combination Effect with 5-fluorouracil / CI, combination with 5-fluorouracil: + 0.3 μM 5-fu; for % Cell Growth, combination with 5-fluorouracil: + 0.3 μM 5-fu (21.3 μM 1h, 2.9 μM 1g, 3.8 μM x-1, 29 μM cel); for CI, combination with 5-fluorouracil / CI, combination with gefitinib: CI <1 synergy, >1 antagonism; for Combination Effect with gefitinib / CI, combination with gefitinib: + 70 μM gef; for % Cell Growth, combination with gefitinib: + 70 μM gef (27.5 μM 1h, 10 μM 1g, 10 μM x-1, 29 μM cel)
Protocol: In addition, exposure of the MCF-7 cells to each of the compounds in combination with each one of the two anti-neoplastic drugs was performed in order to study the synergistic effect of the compounds. The results are shown in Table 9 and Figure 5 and Figure 6.

MCF-7 cells [3] = experiment: Growth inhibition assay, MCF-7 cells; type: cell-based, human; details: Homo sapiens, MCF7, 48 h, 48 h exposure
Protocol: as §2, §3

ovine COX-1 = molecular target: T1, ovine COX-1 (Ovis aries, UniProt P05979); experiment: In vitro COX-1 inhibition (Cayman COX Inhibitor Screening Assay kit); type: biochemical; details: for % Inhibition (COX-1): Compound concentration 50 μΜ, arachidonic acid 0.1 μM
T1 construct: purchased Cayman Chemical Co., Ann Arbor, MI, USA
T1 sequence (P05979 25-600): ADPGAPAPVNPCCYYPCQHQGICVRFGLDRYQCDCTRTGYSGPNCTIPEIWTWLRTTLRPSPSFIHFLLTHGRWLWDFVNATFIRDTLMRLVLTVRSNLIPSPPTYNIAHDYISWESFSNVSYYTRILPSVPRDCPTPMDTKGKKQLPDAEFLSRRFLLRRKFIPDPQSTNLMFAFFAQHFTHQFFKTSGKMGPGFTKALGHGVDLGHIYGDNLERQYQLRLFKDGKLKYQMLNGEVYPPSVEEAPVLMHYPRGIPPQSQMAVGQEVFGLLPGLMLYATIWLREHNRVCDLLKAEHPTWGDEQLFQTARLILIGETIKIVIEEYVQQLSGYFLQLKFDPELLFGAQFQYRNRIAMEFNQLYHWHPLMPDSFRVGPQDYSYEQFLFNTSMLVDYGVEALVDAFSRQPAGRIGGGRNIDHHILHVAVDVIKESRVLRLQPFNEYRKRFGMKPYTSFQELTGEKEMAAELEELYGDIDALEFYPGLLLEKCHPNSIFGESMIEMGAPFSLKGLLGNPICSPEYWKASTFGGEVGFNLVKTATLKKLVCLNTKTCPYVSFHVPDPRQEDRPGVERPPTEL
Protocol: (§1) The COX-1 and COX-2 activities of the compounds were measured using ovine COX-1 and human recombinant COX-2 enzymes included in the “COX Inhibitor Screening Assay” kit provided by Cayman (Cayman Chemical Co., Ann Arbor, MI, USA) as reported previously

MCF-7 cells [4] = experiment: Combination (synergy) growth assay in MCF-7 cells, Combination Index; type: cell-based, human; details: MCF-7, 48 h; for Combination Effect with celecoxib / CI, combination with celecoxib: + 29 μM cel; for % Cell Growth, combination with celecoxib: + 29 μM cel (21.3 μM 1h, 2.9 μM 1g, 3.8 μM x-1); for CI, combination with celecoxib: CI <1 synergy, >1 antagonism
human recombinant COX-2 = molecular target: T2, human recombinant COX-2 (Homo sapiens, UniProt P35354); experiment: In vitro COX-2 inhibition (Cayman COX Inhibitor Screening Assay kit); type: biochemical; details: for % Inhibition (COX-2): Compound concentration 50 μΜ, arachidonic acid 0.1 μM
T2 construct: purchased Cayman Chemical Co., Ann Arbor, MI, USA
T2 sequence (P35354 18-604): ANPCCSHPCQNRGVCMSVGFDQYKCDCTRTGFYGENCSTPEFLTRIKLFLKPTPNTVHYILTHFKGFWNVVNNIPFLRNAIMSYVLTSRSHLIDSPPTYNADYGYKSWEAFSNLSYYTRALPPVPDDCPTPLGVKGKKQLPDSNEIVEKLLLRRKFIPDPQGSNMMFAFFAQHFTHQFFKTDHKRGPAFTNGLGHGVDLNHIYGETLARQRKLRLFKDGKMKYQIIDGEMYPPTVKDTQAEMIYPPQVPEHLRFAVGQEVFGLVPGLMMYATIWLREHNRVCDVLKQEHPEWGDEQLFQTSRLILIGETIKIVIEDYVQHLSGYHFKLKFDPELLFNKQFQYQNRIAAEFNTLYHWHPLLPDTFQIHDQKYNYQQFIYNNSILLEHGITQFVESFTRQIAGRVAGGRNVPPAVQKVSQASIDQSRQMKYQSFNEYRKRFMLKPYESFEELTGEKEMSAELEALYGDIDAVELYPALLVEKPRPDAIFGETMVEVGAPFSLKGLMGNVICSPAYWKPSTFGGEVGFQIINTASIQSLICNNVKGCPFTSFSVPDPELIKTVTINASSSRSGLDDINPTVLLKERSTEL
Protocol: as §1

Row | SMILES | HSC-3 % Cell Growth (HSC-3 cells) | IC50 (HSC-3 cells) | HSC-3 growth inhibition (HSC-3 cells; concentration of 10 μΜ) | inhibition in vivo at 0.1 µmol/g [1] | Combination Effect with 5-fluorouracil (MCF-7 cells [2]) | % Cell Growth, combination with 5-fluorouracil (MCF-7 cells [2]) | CI, combination with 5-fluorouracil (MCF-7 cells [2]) | Combination Effect with gefitinib (MCF-7 cells [2]) | % Cell Growth, combination with gefitinib (MCF-7 cells [2]) | CI, combination with gefitinib (MCF-7 cells [2]) | IC50 (MCF-7 cells [3]) | % Inhibition (COX-1) (ovine COX-1) | IC50 (ovine COX-1; read-out: Experimental IC50 COX-1) | Combination Effect with celecoxib (MCF-7 cells [4]) | % Cell Growth, combination with celecoxib (MCF-7 cells [4]) | CI, combination with celecoxib (MCF-7 cells [4]) | % Inhibition (COX-2) (human recombinant COX-2) | IC50 (human recombinant COX-2; read-out: Experimental IC50 COX-2) | melting point
1 | C[S+]([O-])c1ccc(C2=C(c3ccc(F)cc3)OC(C)(C)C2=O)cc1 (stereo not shown) [1g, 5-(4′-Fluorophenyl) 2,2-dimethyl-4-[4-(methylsulfinyl)phenyl]-furan-3(2H)-one] | 36 ± 4% | 7.5 µM | 64% | 49% | synergism | 19.1% | 0.058 ± 0.010 <1 | synergism | 36.5% | 0.780 ± 0.200 < 1 | 10 µM | 73% | 2.8 µM | synergism | 36.6% | 0.750 ± 0.025 < 1 | 0% | > 50 µM | 
2 | CC1(C)OC(c2ccc(F)cc2)=C(c2ccc(S(C)(=O)=O)cc2)C1=O [1h, 5-(4′-Fluorophenyl)-2,2-dimethyl-4-[4′-(methylsulfonyl)phenyl]-furan-3(2H)-one] | 100 ± 10% | 90 µM |  | 48.8% | synergism | 27.3% | 0.533 ± 0.015 <1 | antagonistic effect; also recorded: antagonism | 45.9% | >1 | 24 µM | 32% |  | antagonism | 38.6% | >1 | 0% |  | 191 to 192 °C
